Legend:
[1] = biological target: T1, interaction of TLR2 with MyD88 (Homo sapiens, UniProt O60603); assay: Co-immunoprecipitation of TLR2 with MyD88 in THP-1 cells; type: cell-based; conditions: C29 150 μM, P3C 50 ng/mL, 15 and 30 minutes, statistical significance at 30 minutes
T1 construct: host or cells: THP-1 cells, PMA 20 ng/mL for 24 hrs, P3C-stimulated
Protocol: FIG. 2. C29 inhibits ligand-induced interaction of TLR2 with MyD88 and blocks MAPK and NF-κβ activation. (A) THP-1 cells were cultured in the presence of PMA (20 ng/mL) for 24 hrs and washed twice in media. THP-1 human monocytes were pretreated with media, vehicle (195 μM NaOH), or C29 (150 μM) for 1 hr and treated with P3C (50 ng/mL) in the presence of media, vehicle, or C29 for 15 or 30 min. Co-immunoprecipitation (IP) was carried out using anti-MyD88 antibody and Western analysis (IB) using whole cell lysates. (B) Densitometry analysis (mean±SEM) of 3 independent experiments as shown in (A). (C) Murine peritoneal macrophages were pretreated for 1 hr with media, vehicle (65 μM NaOH), or C29 (50 μM) and treated with P3C (50 ng/mL) for 5-30 min in the presence of media, vehicle, or C29. IB was performed using whole cell lysates and antibodies directed against the signaling intermediates indicated. β-actin was probed as a loading protein. […]
Cells were treated and washed once with 1×PBS and lysed using buffer containing 20 mM HEPES (pH 7.4), 150 mM NaCl, 1 mM EDTA, 1 mM EGTA (pH 8.0), 50 mM NaF, 0.5% Triton X-100, 1 mM Na3VO4, 1 mM DTT, 1 mM PMSF, and protease inhibitor (Roche Applied Science, Indianapolis, IN). Cells were harvested and protein was quantified using BCA Protein assay reagents (Thermo Scientific/Pierce, Rockford, IL). […]

[2] = biological target: T2, mTLR2/6 (Mus musculus, UniProt Q9QUN7); assay: NF-κβ (ELAM)-luciferase reporter assay in HEK293T cells transfected with murine TLR2 and TLR6, P2C; type: cell-based; conditions: HEK293T transfected with murine TLR2 and TLR6, C29 50 μM, P2C 50 ng/mL 5 hrs
T2 construct: expressed in transfected cells; host or cells: HEK293T, transient transfection; plasmids from Dr. Vladimir Toshchakov
Protocol: FIG. 9. C29 is species-specific and blocks human TLR2/6 signaling, but not murine TLR2/6 signaling. (A-D) HEK293T cells were transiently transfected with reporter constructs for ELAM-luciferase, Renilla-luciferase, and pcDNA3.1 in combination with/without pcDNA3-YFP-hTLR2, pFLAG-CMV1-hTLR1, pcDNA3-CFP-hTLR6, pcDNA3.1-mTLR2-CFP, pcDNA3.1-mTLR1-YFP, or pcDNA3.1-mTLR6-CFP. Cells were pretreated for 1 hr with media, vehicle (65 μM NaOH), or C29 (50 μM) and then treated with P3C or P2C (50 ng/mL) for 5 hrs in the presence of media, vehicle, or C29. Lysates were prepared and the dual-luciferase assay performed. Panels A and B represent the mean±SEM from 3 independent experiments and panels C and D represent the mean±SEM from 2 independent experiments each carried out in duplicate (*, p≤0.05; **, p≤0.01).
HEK293T cells were cultured and plated overnight in 12-well tissue culture plates (2×10^5 cells/well). Transfection mixtures consisted of pcDNA3-YFP-hTLR2 or pcDNA3.1 control vector (1 μg/well each), pELAM (NF-κB)-luciferase (0.2 μg/well), and pRL-TK-Renilla luciferase (0.05 μg/well). […] Cells were lysed in a passive lysis buffer (Promega, Madison, WI) and firefly luciferase and Renilla luciferase activities were measured using the dual luciferase reporter assay system (Promega, Madison, WI). […]

T1 sequence (O60603 21-784): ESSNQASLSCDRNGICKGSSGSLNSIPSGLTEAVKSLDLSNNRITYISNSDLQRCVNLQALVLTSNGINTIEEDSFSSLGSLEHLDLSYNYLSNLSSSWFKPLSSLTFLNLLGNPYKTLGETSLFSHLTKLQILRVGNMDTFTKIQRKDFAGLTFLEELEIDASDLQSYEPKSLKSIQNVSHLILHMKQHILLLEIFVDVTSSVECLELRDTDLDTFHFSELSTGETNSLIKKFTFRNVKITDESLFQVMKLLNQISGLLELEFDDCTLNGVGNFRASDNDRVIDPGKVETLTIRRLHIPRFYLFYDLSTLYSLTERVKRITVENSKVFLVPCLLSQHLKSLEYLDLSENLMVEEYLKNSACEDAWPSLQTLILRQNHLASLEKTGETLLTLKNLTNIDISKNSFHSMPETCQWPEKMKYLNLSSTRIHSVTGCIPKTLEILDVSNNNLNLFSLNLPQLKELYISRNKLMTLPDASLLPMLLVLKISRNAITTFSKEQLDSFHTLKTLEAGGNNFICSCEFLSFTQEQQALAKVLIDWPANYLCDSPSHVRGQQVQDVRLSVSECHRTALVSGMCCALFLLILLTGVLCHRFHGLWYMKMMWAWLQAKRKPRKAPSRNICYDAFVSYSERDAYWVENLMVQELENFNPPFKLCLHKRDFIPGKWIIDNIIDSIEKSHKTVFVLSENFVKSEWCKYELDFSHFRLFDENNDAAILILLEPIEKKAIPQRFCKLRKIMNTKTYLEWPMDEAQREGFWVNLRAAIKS
T2 sequence (Q9QUN7 25-784): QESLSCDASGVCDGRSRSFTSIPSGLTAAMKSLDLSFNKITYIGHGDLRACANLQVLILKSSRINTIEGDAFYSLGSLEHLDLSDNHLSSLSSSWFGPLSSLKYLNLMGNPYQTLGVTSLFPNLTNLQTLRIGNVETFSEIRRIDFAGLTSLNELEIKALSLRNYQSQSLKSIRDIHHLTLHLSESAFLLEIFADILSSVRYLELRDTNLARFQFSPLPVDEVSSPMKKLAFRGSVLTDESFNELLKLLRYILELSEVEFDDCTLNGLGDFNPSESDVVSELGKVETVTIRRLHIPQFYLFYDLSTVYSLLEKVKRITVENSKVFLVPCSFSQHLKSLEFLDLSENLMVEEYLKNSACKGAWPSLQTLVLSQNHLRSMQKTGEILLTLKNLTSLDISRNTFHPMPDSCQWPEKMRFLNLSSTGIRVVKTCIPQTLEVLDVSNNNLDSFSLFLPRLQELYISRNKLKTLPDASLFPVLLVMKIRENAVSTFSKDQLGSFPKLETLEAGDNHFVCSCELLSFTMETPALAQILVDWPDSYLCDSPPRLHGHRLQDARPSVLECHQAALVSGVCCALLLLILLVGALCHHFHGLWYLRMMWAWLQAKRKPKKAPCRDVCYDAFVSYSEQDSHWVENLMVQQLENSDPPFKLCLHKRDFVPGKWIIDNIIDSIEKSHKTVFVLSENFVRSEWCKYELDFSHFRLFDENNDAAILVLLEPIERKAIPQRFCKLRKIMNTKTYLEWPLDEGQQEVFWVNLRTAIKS

SMILES: COc1cccc(/C=N/c2cccc(C(=O)O)c2C)c1O [Compound C29]
- interaction between endogenous TLR2 and MyD88 (co-IP) [1]: diminished the interaction
- mTLR2/6-induced NF-κβ-luciferase activity [2]: but not mTLR2/6-induced
